Assay results taken from US20220031607A1, “INJECTION COMPOSITION CONTAINING FAB I INHIBITOR, AND PREPARATION METHOD THEREFOR” (CRYSTALGENOMICS, INC., priority 2019, published 2022).

Key:
[1] = system: Methicillin-resistant Staphylococcus aureus (MRSA) strains; test: Drug susceptibility (MIC) of MRSA clinical isolates; assay type: cell-based; details: Methicillin-resistant, n = 100
Method: (§1) In order to verify the inhibitory effect of the compound of formula 1 on antibiotic-resistant strains, drug susceptibility was evaluated by treating the compound of formula 1 with Staphylococcus aureus phenotype isolated from each patient. In an in vitro test for antibiotic development, the most important result can be MIC90 (minimum inhibitory concentration required to inhibit the growth of 90% of the total bacterial population). […] Appelbaum at Hershey Hospital who is recognized for its authority in the field of anti-infection worldwide.

[2] = Stability after dilution of prepared freeze-dried powder in physiological saline; assay type: physicochemical; details: 16% HP-beta-cyclodextrin solution, 60 °C, aqueous with cosolvent or surfactant or cyclodextrin, thermodynamic from solid; in 16% HP-beta-cyclodextrin; read-out: highest solubility
Method: Hydroxypropyl beta-cyclodextrin (HP-beta-cyclodextrin) was dissolved in distilled water for injection under stirring at room temperature and heated to 60° C., and the compound of formula 1 was added thereto, stirred and enclosed therein. The liquid injection was sterilized and filtered through 0.22 μm filter paper. The filtered injection solution was filled into a glass vial, cooled at −80° C., and freeze-dried to commercialize.

[3] = Evaluation of excipient suitability (related substances on storage at 60° C.); assay type: physicochemical; set-up: Total related substances, Initial value: unit not given here; details: for Total related substances, Severe (1 week): 60° C.
Method: The resulting product was stored at 60° C. and the stability of the compound of formula 1 was measured. The measurement of related substances was evaluated according to the guidelines for the evaluation of related substances of the Ministry of Food and Drug Safety, and the results are shown in Table 2.

[4] = system: Staphylococcus aureus ATCC 29213 (MSSA) and 13B-382 (MRSA); test: Pharmacokinetic/pharmacodynamic analysis in neutropenic mouse thigh infection model; assay type: in vivo, ICR mouse; details: oral administration
Method: (§2) For the compound of formula 1, pharmacokinetic/pharmacodynamic experiments were conducted using a mouse infection model. To this end, experiments were conducted with Staphylococcus aureus ATCC 29213 (MSSA, standard strain) and 13B-382 (MRSA, clinical strain). As a medium, Mueller-Hinton broth or Cation-adjusted Mueller-Hinton broth was used. For the susceptibility test (minimum inhibitory concentration (MIC)), the compound of formula 1 was used.
An aseptic (Specific pathogen free, SPF) female, 6 weeks old (23˜27 g) ICR mouse (Orient Bio Inc, Gapyeong, Korea) was used, and the experiment was carried out in compliance with the regulations and procedures with the permission of the Ethics committees for animal experiments in accordance with the Animal Protection Act and the Laboratory Animal Act. […]
After 24 hours of drug administration, the mouse was euthanized with carbon dioxide gas and its thigh was separated, put in physiological saline, and cut finely with a homogenizer (Kinematica AG/Polytron®). […] The number of viable cells was counted and recorded. The results were expressed as log10 CFU/thigh, and the measurement limit of the number of viable cells in the laboratory was 1×10^2 CFU/thigh.
T/MIC was evaluated as an index to determine the effect of antibiotics in combination with the antimicrobial action and pharmacokinetic results according to the antimicrobial dosage and administration. […]

[5] = system: Staphylococcus aureus ATCC 29213 (MSSA, standard strain); test: Susceptibility test (MIC), standard strain; assay type: cell-based; details: Staphylococcus aureus ATCC 29213; read-out: MIC
Method: as §2

[6] = system: Methicillin-susceptible Staphylococcus aureus strains; test: Drug susceptibility (MIC) of methicillin-susceptible clinical isolates; assay type: cell-based; details: Methicillin-susceptible, n = 103
Method: as §1

[7] = system: Staphylococcus aureus 13B-382 (MRSA, clinical strain); test: Susceptibility test (MIC), clinical strain; assay type: cell-based; details: Staphylococcus aureus 13B-382, read-out: MIC
Method: as §2

[8] = Evaluation of water solubility according to pH; assay type: physicochemical; details: thermodynamic from solid
Method: Experimental Example 1-1: […] After completion of the stirring, insoluble substances that may remain were removed by first centrifugation and second filtration with 0.22 μm filter. The substances were diluted with organic solvent methanol and analyzed by HPLC for […] of the solubility. […] As the pH increases, the solubility tends to decrease rapidly.

[9] = mixed with Beta-Hydroxypropyl cyclodextrin

MIC Range [1]: 0.06 to 1.0 µg/mL
MIC50 ([1]; Staphylococcus aureus, MRSA, read-out: MIC50): 0.25 µg/mL
MIC90 ([1]; Staphylococcus aureus, MRSA, read-out: MIC90): 0.25 µg/mL
Solubility [2]: 3000 µg/mL
Total related substances, Initial value ([3]; Compound of formula 1 alone): 0.5
Total related substances, Severe (1 week) ([3]; Compound of formula 1 alone): 0.5
Total related substances, Initial value [3, 9]: 0.5
Total related substances, Severe (1 week) [3, 9]: 0.6
Total related substances, Initial value ([3]; mixed with Cremophor 40): 1.6
Total related substances, Severe (1 week) ([3]; mixed with Cremophor 40): 3.4
Total related substances, Initial value ([3]; mixed with Glycerin): 1.4
Total related substances, Severe (1 week) ([3]; mixed with Glycerin): 1.1
Total related substances, Initial value ([3]; mixed with Labrasol): 6.2
Total related substances, Initial value ([3]; mixed with Oleic acid): 6.2
Total related substances, Initial value ([3]; mixed with Olive oil): 1.1
Total related substances, Severe (1 week) ([3]; mixed with Olive oil): 0.7
Total related substances, Initial value ([3]; mixed with PEG): 1.1
Total related substances, Initial value ([3]; mixed with PEG 400): 6.4
Total related substances, Severe (1 week) ([3]; mixed with PEG 400): 9.8
Total related substances, Initial value ([3]; mixed with PEG 20,000): 4.2
Total related substances, Severe (1 week) ([3]; mixed with PEG 20,000): 1
Total related substances, Severe (1 week) ([3]; mixed with PEG): 7
Total related substances, Initial value ([3]; mixed with PVA): 0.9
Total related substances, Initial value ([3]; mixed with PVA 2,000): 0.9
Total related substances, Severe (1 week) ([3]; mixed with PVA 2,000): 0.6
Total related substances, Severe (1 week) ([3]; mixed with PVA): 0.6
Total related substances, Initial value ([3]; mixed with Poloxamer 407): 0.9
Total related substances, Severe (1 week) ([3]; mixed with Poloxamer 407): 0.5
Total related substances, Initial value ([3]; mixed with Propylene glycol): 1
Total related substances, Severe (1 week) ([3]; mixed with Propylene glycol): 5
Total related substances, Initial value ([3]; mixed with Solutol HS 15): 0.7
Total related substances, Severe (1 week) ([3]; mixed with Solutol HS 15): 3.8
Total related substances, Initial value ([3]; mixed with Soybean Oil): 1.1
Total related substances, Severe (1 week) ([3]; mixed with Soybean Oil): 1.4
Total related substances, Initial value ([3]; mixed with Transcutol HP): 1.9
Total related substances, Severe (1 week) ([3]; mixed with Transcutol HP): 9.1
Total related substances, Initial value ([3]; mixed with Tween 80): 1.2
Total related substances, Severe (1 week) ([3]; mixed with Tween 80): 2.6
Stability with excipients ([3]; with soybean oil, olive oil, Tween 80, PEG 20000, PVA, PVA 2000, poloxamer 407, beta-hydroxypropyl cyclodextrin, glycerin): relatively stable
T/MIC value at which more than 99.9% of bacteria were eradicated ([4]; 24 hours): ≥ 20%
MIC [5]: 0.25 µg/mL
MIC Range [6]: 0.06 to 1.0 µg/mL
MIC50 ([6]; Staphylococcus aureus, read-out: MIC50): 0.25 µg/mL
MIC90 ([6]; Staphylococcus aureus, read-out: MIC90): 0.25 µg/mL
MIC [7]: 0.25 µg/mL
solubility at 2 h ([8]; aqueous buffer, aqueous solution pH 3, room temperature): 6 µg/mL
solubility at 2 h ([8]; aqueous buffer, aqueous solution pH 7, room temperature): 2.5 µg/mL
solubility at 2 h ([8]; aqueous solutions, aqueous buffer, pH 4 to 8): 2 to 5 µg/mL
solubility at 2 h ([8]; simulated gastric fluid, aqueous solution pH 1.2, room temperature): ~1000 µg/mL
Structure (SMILES): Cc1c(N)cccc1Cn1ccc(OCCc2cccs2)cc1=O [Compound of formula 1, 1-(3-amino-2-methylbenzyl)-4-(2-thiophen-2-yl-ethoxy)-1H-pyridin-2-one]
bacteria eradicated ([4]; T/MIC value approximately 20% or higher): more than 99.9%
